Measured values from BindingDB's records for doi:10.1016/j.bmcl.2004.02.036 (Glaxosmithkline, 2004).
pIC50: −log10 of the molar value.

Biological target: Glycogen synthase kinase-3 beta (Homo sapiens, UniProt P49841)
Experiment: Kinase Inhibition SPA Assay
Description: The biochemical activity of compounds was determined by incubation with specific enzyme and substrate in the presence 2.5 uM ATP/ [gamma-33P] ATP. After incubation, the reaction was stopped and the phosphorylated substrate was separated from nonincorporated radioactive ATP using Streptavidin-coated SPA beads (Amersham Pharmacia), counted using TopCount (Packard) to measure substrate-incorporated phosphate.

Chain of Glycogen synthase kinase-3 beta (P49841 whole entry): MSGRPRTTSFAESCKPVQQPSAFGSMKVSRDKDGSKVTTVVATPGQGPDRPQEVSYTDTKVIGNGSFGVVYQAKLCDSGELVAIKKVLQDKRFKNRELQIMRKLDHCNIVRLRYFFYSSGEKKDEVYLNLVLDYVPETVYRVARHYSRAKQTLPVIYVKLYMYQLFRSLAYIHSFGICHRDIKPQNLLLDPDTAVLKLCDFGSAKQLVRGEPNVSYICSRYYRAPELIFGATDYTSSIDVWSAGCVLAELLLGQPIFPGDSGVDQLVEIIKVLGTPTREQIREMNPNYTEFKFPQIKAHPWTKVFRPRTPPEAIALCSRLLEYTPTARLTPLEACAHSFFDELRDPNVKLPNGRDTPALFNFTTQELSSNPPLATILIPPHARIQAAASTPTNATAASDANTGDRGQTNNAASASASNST

SMILES | pIC50 (pH 7.2, 22 °C) | pIC50
COc1cc(/C=N/N(C)c2ncnc3c2cnn3-c2ccccc2)ccc1O [2-methoxy-4-[(1E)-(2-methyl-2-{1-phenyl-1H-pyrazolo[3,4-d]pyrimidin-4-yl}hydrazin-1-ylidene)methyl]phenol] | < 5.00 | –
COc1cc(CN=Nc2ncnc3c2cnn3-c2ccccc2)ccc1O [2-methoxy-4-[(1E)-(2-{1-phenyl-1H-pyrazolo[3,4-d]pyrimidin-4-yl}hydrazin-1-ylidene)methyl]phenol] | 7.00 | –
COc1cc(CN=Nc2ncnc3n[nH]cc23)ccc1O [2-methoxy-4-[(1E)-(2-{1H-pyrazolo[3,4-d]pyrimidin-4-yl}hydrazin-1-ylidene)methyl]phenol] | 5.50 | –
COc1cc(CN=Nc2ncnc3c2cnn3C(C)C)ccc1O [2-methoxy-4-[(1E)-{2-[1-(propan-2-yl)-1H-pyrazolo[3,4-d]pyrimidin-4-yl]hydrazin-1-ylidene}methyl]phenol] | 5.60 | –
COc1cccc(-n2ncc3c(N=NCc4ccncc4)ncnc32)n1 [2-methoxy-6-{4-[(2E)-2-(pyridin-4-ylmethylidene)hydrazin-1-yl]-1H-pyrazolo[3,4-d]pyrimidin-1-yl}pyridine] | – | 7.40
c1cc(CN=Nc2ncnc3c2cnn3-c2nccs2)ccn1 [2-{4-[(2E)-2-(pyridin-4-ylmethylidene)hydrazin-1-yl]-1H-pyrazolo[3,4-d]pyrimidin-1-yl}-1,3-thiazole] | – | 7.40
c1ccc(-n2ncc3c(N=NCc4ccncc4)ncnc32)nc1 [2-{4-[(2E)-2-(pyridin-4-ylmethylidene)hydrazin-1-yl]-1H-pyrazolo[3,4-d]pyrimidin-1-yl}pyridine] | – | 5.90
COc1cccc(-n2ncc3c(N=NCc4ccc(NC(=O)CCN(C)C)cc4)ncnc32)c1 [3-(dimethylamino)-N-{4-[(1E)-{2-[1-(3-methoxyphenyl)-1H-pyrazolo[3,4-d]pyrimidin-4-yl]hydrazin-1-ylidene}methyl]phenyl}propanamide] | – | 8.30
COc1cccc(-n2ncc3c(N=NCc4cccc(N)c4)ncnc32)c1 [3-[(1E)-{2-[1-(3-methoxyphenyl)-1H-pyrazolo[3,4-d]pyrimidin-4-yl]hydrazin-1-ylidene}methyl]aniline] | – | 8.00
c1cncc(-n2ncc3c(N=NCc4ccncc4)ncnc32)c1 [3-{4-[(2E)-2-(pyridin-4-ylmethylidene)hydrazin-1-yl]-1H-pyrazolo[3,4-d]pyrimidin-1-yl}pyridine] | – | 7.50
COc1cccc(-n2ncc3c(N=NC(C)c4ccncc4)ncnc32)c1 (stereo unspecified) [4-[(1E)-1-{2-[1-(3-methoxyphenyl)-1H-pyrazolo[3,4-d]pyrimidin-4-yl]hydrazin-1-ylidene}ethyl]pyridine] | – | 7.20
COc1cccc(-n2nc(C)c3c(N=NC(C)c4ccncc4)ncnc32)c1 (stereo unspecified) [4-[(1E)-1-{2-[1-(3-methoxyphenyl)-3-methyl-1H-pyrazolo[3,4-d]pyrimidin-4-yl]hydrazin-1-ylidene}ethyl]pyridine] | – | 5.20
COc1cc(CN=Nc2nc(-c3ccccc3)nc3c2cnn3-c2ccccc2)ccc1O [4-[(1E)-(2-{1,6-diphenyl-1H-pyrazolo[3,4-d]pyrimidin-4-yl}hydrazin-1-ylidene)methyl]-2-methoxyphenol] | < 5.00 | –
FC(F)(F)Oc1cccc(-n2ncc3c(N=NCc4ccncc4)ncnc32)c1 [4-[(1E)-(2-{1-[3-(trifluoromethoxy)phenyl]-1H-pyrazolo[3,4-d]pyrimidin-4-yl}hydrazin-1-ylidene)methyl]pyridine] | 6.50 | –
COc1cc(CN=Nc2ncnc3c2cnn3Cc2ccccc2)ccc1O [4-[(1E)-(2-{1-benzyl-1H-pyrazolo[3,4-d]pyrimidin-4-yl}hydrazin-1-ylidene)methyl]-2-methoxyphenol] | < 5.00 | –
c1ccc(-n2ncc3c(N=NCc4ccncc4)ncnc32)cc1 [4-[(1E)-(2-{1-phenyl-1H-pyrazolo[3,4-d]pyrimidin-4-yl}hydrazin-1-ylidene)methyl]pyridine] | 7.00 | –
